According to PMC6150237, “Study of Absorption Characteristics of the Total Saponins from Radix Ilicis Pubescentis in an In Situ Single-Pass Intestinal Perfusion (SPIP) Rat Model by Using Ultra Performance Liquid Chromatography (UPLC)” (Molecules : A Journal of Synthetic Chemistry and Natural …, 2017):
Several values for one entry are separate records, joined by “and”; a condition that tells them apart may be missing. Equal values may be shown once. Entries after “also recorded” stand apart in the source; their conditions may differ.

Experiments:
Assay type in all cases: in vivo
[1] = tested on: rat small intestine (duodenum, jejunum, ileum); experiment: In situ single-pass intestinal perfusion (SPIP), saponins administrated in monomer forms; parameters: key to Papp / Ka: -: no absorption; conditions: for intestinal absorption of monomers: small intestine, result in words
Procedure: (§1) MDQ-TS perfusion samples at low, middle, and high concentration levels of 1.25, 2.5, and 5.0 mg·mL^−1 were prepared by separately dissolving MDQ-TS in the minimum amount of DMSO and diluted with K-R buffer solution. The amount of DMSO was 0.5% in the final perfusion solutions. C1, C2, C3, C4, DC1, and DC2 perfusion samples with the concentration equivalent to the amount contained in 2.5 mg·mL^−1 of MDQ-TS were individually prepared in the same way. Verapamil, amantadine and EDTA were directly dissolved in the MDQ-TS perfusate with terminal concentrations of 200 μmol·L^−1, 2.5 mmol·L^−1, and 2.5 mmol·L^−1, accordingly, and used for investigating the mechanisms involved for absorption.
(§2) In situ single-pass intestinal perfusion (SPIP) studies were performed using an experimental design adapted from the literature with some modifications. Briefly, male Sprague-Dawley rats weighing 180–220 g were acclimatized for at least one week before the experiment, and fasted for 18 h with free access to water before the perfusion experiment. Rats were anesthetized with an intraperitoneal injection of urethane (30 mg·kg^−1 body weight), and kept on a homeothermic blanket to maintain normal body temperature. The abdomen was opened with a midline longitudinal incision, and three segments of rat intestine (duodenum, jejunum, and ileum) of approximately 10 cm each were carefully cannulated on two ends with plastic tubing. Initially, the perfusion solution free of drug (37 °C) was pumped by peristaltic pump (BT100-1F, Longer Pump Co., Baoding, China) through the cannulated segments at a flow rate of 1 mL/min for approximately 30 min in order to clean out any residual debris. Secondly, the perfusion solution containing a known concentration of substance (C1, C2, C3, C4, DC1, DC2, and MDQ-TS) was perfused at 37 °C through the intestinal lumen at a constant flow rate of 0.2 mL/min. The first 20 min of period corresponds to steady state, i.e., when the substance is in equilibrium with the intestinal membrane. After steady state, samples were collected from distal portion of duodenum, jejunum and ileum at 10 min intervals (0–10, 10–20, 20–30, 30–40, 40–50, 50–60 min) in pre-weighted vials. Samples were immediately frozen at −20 °C until analysis by validated UPLC. During the experiment, care was taken to avoid disturbance of the circulatory system and the exposed segment was covered with a piece of sterilized gauze to keep it warm and moist by frequent application of warm (37 °C) saline. The intestinum tenue maintained its viability and intact state without disrupting the blood supply throughout the experimental period. Finally, animals were sacrificed after depth anesthesia by intraperitoneal injection of urethane, according to protocols for euthanasia in experimental animals. After death, the intestinal segment was removed for measurements of length and inside diameter.
(§3) The net water flux in the in situ perfusion studies (water absorption and efflux in the intestinal segment) was determined by gravimetric method. The effective absorption rate constant (Ka) and effective apparent permeability (Papp) of compounds in the intestinal segments were calculated according to the following mathematical expression:(1) Ka=(1−CoutQout/CinQin)Q/V (2) Papp=−Qln(CoutQout/CinQin)/2πrl where Cin and Cout are the concentration of test drug in the effluent perfusate through the inlet and outlet tube (μg·mL^−1), respectively. Qin and Qout represent the inlet and outlet volume of effluent perfusate (mL), respectively. Q is the volume flow rate of perfusion (mL·h^−1). V is the volume of the intestinal segment concerned (mL). 2πrl is the area of the mass transfer surface of intestinal segment concerned (cm^2).

[2] = tested on: rat small intestine (duodenum, jejunum, ileum); experiment: In situ single-pass intestinal perfusion (SPIP), saponins administrated in MDQ-TS form; parameters: key: -: no absorption
Procedure: as §1, §2, §3

[3] = tested on: rat duodenum; experiment: SPIP of MDQ-TS with or without amantadine (endocytosis inhibitor); conditions: MDQ-TS 2.5 mg/mL; for decrease of absorption compared with non-Amantadine added group: amantadine 2.5 mmol·L^−1
Procedure: as §1, §2
as §3, with “(cm^2). […]” for “(cm^2).”

[4] = monomer form, duodenum, concentration equivalent to 2.5 mg·mL^−1 MDQ-TS, n = 5
[5] = MDQ-TS form 1.25 mg·mL^−1, duodenum, n = 5
[6] = MDQ-TS form 1.25 mg·mL^−1, ileum, n = 5
[7] = MDQ-TS form 1.25 mg·mL^−1, jejunum, n = 5
[8] = MDQ-TS form 2.5 mg·mL^−1, duodenum, n = 5
[9] = MDQ-TS form 2.5 mg·mL^−1, ileum, n = 5
[10] = MDQ-TS form 2.5 mg·mL^−1, jejunum, n = 5
[11] = MDQ-TS form 5.0 mg·mL^−1, duodenum, n = 5
[12] = MDQ-TS form 5.0 mg·mL^−1, ileum, n = 5
[13] = MDQ-TS form 5.0 mg·mL^−1, jejunum, n = 5
[14] = administrated in MDQ-TS form, summary bound (except DC2 in 1.25 mg·mL^−1 MDQ-TS group)
[15] = MDQ-TS form 1.25 mg·mL^−1, duodenum, symbol
[16] = MDQ-TS form 1.25 mg·mL^−1, ileum, symbol
[17] = MDQ-TS form 1.25 mg·mL^−1, jejunum, symbol

| Molecule | Ka [2, 5] | Papp [2, 5] | Ka [2, 6] | Papp [2, 6] | Ka [2, 7] | Papp [2, 7] | Ka [2, 8] | Papp [2, 8] | Ka [2, 9] | Papp [2, 9] | Ka [2, 10] | Papp [2, 10] | Ka [2, 11] | Papp [2, 11] | Ka [2, 12] | Papp [2, 12] | Ka [2, 13] | Papp [2, 13] | Papp [2, 14] | Ka ([1]; monomer form, duodenum, symbol) | further results |
| --- | --- | --- | --- | --- | --- | --- | --- | --- | --- | --- | --- | --- | --- | --- | --- | --- | --- | --- | --- | --- | --- |
| C[C@H]1CC[C@]2(C(=O)O)CC[C@]3(C)C(=CC[C@@H]4[C@@]5(C)CC[C@H](O[C@@H]6OC[C@@H](O)[C@H](O)[C@H]6O[C@@H]6O[C@H](CO)[C@@H](O)[C@H](O)[C@H]6O)C(C)(C)[C@@H]5CC[C@]43C)[C@@H]2[C@]1(C)O [C3, ilexsaponin B1] | 1.16 ± 0.26 ×10^−2 min^−1 | 0.24 ± 0.10 ×10^−2 cm·min^−1 | 1.04 ± 0.11 ×10^−2 min^−1 | 0.18 ± 0.01 ×10^−2 cm·min^−1 | 0.94 ± 0.12 ×10^−2 min^−1 | 0.17 ± 0.04 ×10^−2 cm·min^−1 | 2.19 ± 0.52 ×10^−2 min^−1 | 0.36 ± 0.06 ×10^−2 cm·min^−1 | 3.77 ± 0.41 ×10^−2 min^−1 | 0.42 ± 0.03 ×10^−2 cm·min^−1 | 3.82 ± 0.49 ×10^−2 min^−1 | 0.40 ± 0.13 ×10^−2 cm·min^−1 | 1.80 ± 0.97 ×10^−2 min^−1 | 0.39 ± 0.24 ×10^−2 cm·min^−1 | 1.66 ± 0.95 ×10^−2 min^−1 | 0.29 ± 0.15 ×10^−2 cm·min^−1 | 2.48 ± 0.86 ×10^−2 min^−1 | 0.40 ± 0.24 ×10^−2 cm·min^−1 | > 0.0012 cm/min |  | Papp ([1]; administered in monomer forms, summary bound): > 0.0012 cm/min; Ka [1, 4]: 1.49 ± 0.36 ×10^−2 min^−1; Papp [1, 4]: 0.23 ×10^−2 cm·min^−1 and 0.23 ± 0.02 ×10^−2 cm·min^−1; Ka ([1]; monomer form, ileum, n = 5): 1.38 ± 0.06 ×10^−2 min^−1; Papp ([1]; monomer form, ileum, n = 5): 0.21 ± 0.06 ×10^−2 cm·min^−1; Ka ([1]; monomer form, jejunum, n = 5): 1.56 ± 0.30 ×10^−2 min^−1; Papp ([1]; monomer form, jejunum, n = 5): 0.23 ×10^−2 cm·min^−1 and 0.23 ± 0.05 ×10^−2 cm·min^−1; permeability classification ([1]; monomers, Papp > 0.12 × 10^−2 cm·min^−1 classified as completely absorbed (highly permeable)): highly permeable |
| C[C@@H]1O[C@@H](O[C@H]2[C@H](O[C@H]3[C@H](O[C@H]4CC[C@]5(C)[C@H]6CC=C7[C@H]8[C@](C(=O)O)(CC[C@H](C)[C@@]8(C)O)CC[C@@]7(C)[C@]6(C)CC[C@H]5C4(C)C)OC[C@@H](O)[C@@H]3O)O[C@H](CO)[C@@H](O)[C@@H]2O)[C@H](O)[C@H](O)[C@H]1O [C4, ilexsaponin B2] | 1.04 ± 0.31 ×10^−2 min^−1 | 0.20 ± 0.09 ×10^−2 cm·min^−1 | 0.83 ± 0.28 ×10^−2 min^−1 | 0.14 ± 0.04 ×10^−2 cm·min^−1 | 0.84 ± 0.47 ×10^−2 min^−1 | 0.14 ± 0.05 ×10^−2 cm·min^−1 | 1.94 ± 0.50 ×10^−2 min^−1 | 0.42 ± 0.05 ×10^−2 cm·min^−1 | 2.53 ± 0.29 ×10^−2 min^−1 | 0.40 ± 0.03 ×10^−2 cm·min^−1 | 3.19 ± 0.56 ×10^−2 min^−1 | 0.49 ± 0.03 ×10^−2 cm·min^−1 | 1.87 ± 0.86 ×10^−2 min^−1 | 0.40 ± 0.22 ×10^−2 cm·min^−1 | 1.52 ± 0.92 ×10^−2 min^−1 | 0.26 ± 0.15 ×10^−2 cm·min^−1 | 1.92 ± 0.61 ×10^−2 min^−1 | 0.45 ± 0.18 ×10^−2 cm·min^−1 | > 0.0012 cm/min | - | Papp ([1]; monomer form, duodenum, symbol): -; Ka ([1]; monomer form, ileum, symbol): -; Papp ([1]; monomer form, ileum, symbol): -; Ka ([1]; monomer form, jejunum, symbol): -; Papp ([1]; monomer form, jejunum, symbol): -; intestinal absorption of monomers ([1]; monomer form): could not be absorbed by small intestine at all; also recorded: no absorption; also recorded: could not be absorbed by the gastrointestinal tract at all; decrease of absorption compared with non-Amantadine added group [3]: 31% |
| C[C@@H]1O[C@@H](O[C@H]2[C@H](O[C@H]3[C@H](O[C@H]4CC[C@]5(C)[C@H]6CC=C7[C@H]8[C@](C(=O)O[C@@H]9O[C@H](CO)[C@@H](O)[C@H](O)[C@H]9O)(CC[C@H](C)[C@@]8(C)O)CC[C@@]7(C)[C@]6(C)CC[C@H]5C4(C)C)OC[C@@H](O)[C@@H]3O)O[C@H](CO)[C@@H](O)[C@@H]2O)[C@H](O)[C@H](O)[C@H]1O [DC2, ilexoside O] |  |  |  |  |  |  | 0.62 ± 0.13 ×10^−2 min^−1 | 0.16 ± 0.06 ×10^−2 cm·min^−1 | 1.54 ± 0.85 ×10^−2 min^−1 | 0.19 ± 0.08 ×10^−2 cm·min^−1 | 1.23 ± 0.46 ×10^−2 min^−1 | 0.21 ± 0.08 ×10^−2 cm·min^−1 | 1.27 ± 0.44 ×10^−2 min^−1 | 0.25 ± 0.16 ×10^−2 cm·min^−1 | 1.14 ± 0.45 ×10^−2 min^−1 | 0.19 ± 0.07 ×10^−2 cm·min^−1 | 1.73 ± 0.66 ×10^−2 min^−1 | 0.26 ± 0.17 ×10^−2 cm·min^−1 | > 0.0012 cm/min | - | Papp ([1]; monomer form, duodenum, symbol): -; Ka ([1]; monomer form, ileum, symbol): -; Papp ([1]; monomer form, ileum, symbol): -; Ka ([1]; monomer form, jejunum, symbol): -; Papp ([1]; monomer form, jejunum, symbol): -; intestinal absorption of monomers ([1]; monomer form): could not be absorbed by small intestine at all; also recorded: no absorption; also recorded: could not be absorbed by the gastrointestinal tract at all; Ka [2, 15]: -; Papp [2, 15]: -; Ka [2, 16]: -; Papp [2, 16]: -; Ka [2, 17]: -; Papp [2, 17]: -; decrease of absorption compared with non-Amantadine added group [3]: 100%; absorption when co-perfusion with Amantadine ([3]; amantadine 2.5 mmol·L^−1, result in words): completely inhibited |
| ilexsaponin B3 [DC1] | 0.56 ± 0.17 ×10^−2 min^−1 | 0.13 ± 0.05 ×10^−2 cm·min^−1 | 0.59 ± 0.35 ×10^−2 min^−1 | 0.22 ± 0.13 ×10^−2 cm·min^−1 | 0.46 ± 0.21 ×10^−2 min^−1 | 0.23 ± 0.15 ×10^−2 cm·min^−1 | 1.76 ± 0.44 ×10^−2 min^−1 | 0.34 ± 0.08 ×10^−2 cm·min^−1 | 1.65 ± 0.33 ×10^−2 min^−1 | 0.16 ± 0.07 ×10^−2 cm·min^−1 | 1.99 ± 0.49 ×10^−2 min^−1 | 0.35 ± 0.08 ×10^−2 cm·min^−1 | 1.53 ± 0.55 ×10^−2 min^−1 | 0.30 ± 0.13 ×10^−2 cm·min^−1 | 1.21 ± 0.58 ×10^−2 min^−1 | 0.21 ± 0.11 ×10^−2 cm·min^−1 | 2.05 ± 0.72 ×10^−2 min^−1 | 0.32 ± 0.19 ×10^−2 cm·min^−1 | > 0.0012 cm/min | - | Papp ([1]; monomer form, duodenum, symbol): -; Ka ([1]; monomer form, ileum, symbol): -; Papp ([1]; monomer form, ileum, symbol): -; Ka ([1]; monomer form, jejunum, symbol): -; Papp ([1]; monomer form, jejunum, symbol): -; intestinal absorption of monomers ([1]; monomer form): could not be absorbed by small intestine at all; also recorded: no absorption; also recorded: could not be absorbed by the gastrointestinal tract at all; decrease of absorption compared with non-Amantadine added group [3]: 53% |
